Ends that are not written are not given here.
Tested on: pepsin
Assay: In vitro simulated gastric digestion (pepsin) of PCPs and PCP-loaded NPs
Format: in vitro ADME
Details: after 20 min of in vitro simulated gastric digestion by pepsin; mean ± SD

Row | degradation rate | Substance
1 | 71.65% ± 2.99% | ADSLLSGLR [PCP2]
2 | 78.82% ± 3.46% | AGDASVLEDR [PCP1]
3 | 77.24% ± 1.72% | MFDAFTK [PCP3]
